This note sets out measurements from ChEMBL document CHEMBL5375950, “Chemical genetic approaches for the discovery of bacterial cell wall inhibitors” (2023).

The assay deals with Escherichia coli. As to the kind of experiment: Antibacterial activity against Escherichia coli MG1655 assessed as inhibition of bacterial growth. It is filed as functional.

Values after ≈ are worked out from the molar mass of the structure shown.

By MIC is commonly meant the smallest concentration in the dilution series that meets the test's criterion for growth inhibition. With `COc1ccc(-c2c(-c3ccc(C)s3)[nH]c3[nH]c(=O)[nH]c(=O)c23)cc1`, the MIC was 16 µg/mL (≈ 45.3 µM).
